{"source": "patent US20240368209A1", "about": "“GEMCITABINE ANTICANCER DERIVATIVE AND ANTICANCER PHARMACEUTICAL USE” (ASCENTAWITS PHARMACEUTICALS, LTD., priority 2021, published 2024)", "test_system": "HuPrime pancreatic cancer xenograft model PA1222", "assay": "In vivo pharmacodynamic experiment in HuPrime pancreatic cancer PA1222 PDX model", "details": "for Tumor volume (x ± S): mean ± standard error", "key": {"[1]": {"details": "Group 5, 160 mg/kg i.v. Q2D×3 weeks, Day 32"}}, "data": [{"smiles": "CC(C)NP(=O)(OCc1ccc([N+](=O)[O-])c(Oc2ccc(-c3ccc(F)cc3)c(F)c2)c1)OCC1OC(C2N=CC(N)=NC2=O)C(F)(F)C1O", "note": "(centres unmarked) [Compound H11]", "values": [{"measurement": "Tumor volume (x ± S)", "setting": "Group 4, 160 mg/kg i.p. QD×5, 2 days off, 2 weeks off, QD×5, Day 32", "value": "202.58 ± 45.40"}, {"measurement": "Average weight (g) of mice", "setting": "Group 4, 160 mg/kg i.p., Day 0", "value": 21.4, "unit": "g"}, {"measurement": "Average weight (g) of mice", "setting": "Group 4, 160 mg/kg i.p., Day 1", "value": 22.0, "unit": "g"}, {"measurement": "Average weight (g) of mice", "setting": "Group 4, 160 mg/kg i.p., Day 2", "value": 21.5, "unit": "g"}, {"measurement": "Average weight (g) of mice", "setting": "Group 4, 160 mg/kg i.p., Day 3", "value": 22.0, "unit": "g"}, {"measurement": "Average weight (g) of mice", "setting": "Group 4, 160 mg/kg i.p., Day 4", "value": 21.7, "unit": "g"}, {"measurement": "Average weight (g) of mice", "setting": "Group 4, 160 mg/kg i.p., Day 7", "value": 22.3, "unit": "g"}, {"measurement": "Average weight (g) of mice", "setting": "Group 4, 160 mg/kg i.p., Day 11", "value": 22.5, "unit": "g"}, {"measurement": "Average weight (g) of mice", "setting": "Group 4, 160 mg/kg i.p., Day 14", "value": 22.9, "unit": "g"}, {"measurement": "Average weight (g) of mice", "setting": "Group 4, 160 mg/kg i.p., Day 18", "value": 22.7, "unit": "g"}, {"measurement": "Average weight (g) of mice", "setting": "Group 4, 160 mg/kg i.p., Day 21", "value": 22.9, "unit": "g"}, {"measurement": "Average weight (g) of mice", "setting": "Group 4, 160 mg/kg i.p., Day 22", "value": 22.6, "unit": "g"}, {"measurement": "Average weight (g) of mice", "setting": "Group 4, 160 mg/kg i.p., Day 23", "value": 22.5, "unit": "g"}, {"measurement": "Average weight (g) of mice", "setting": "Group 4, 160 mg/kg i.p., Day 24", "value": 22.6, "unit": "g"}, {"measurement": "Average weight (g) of mice", "setting": "Group 4, 160 mg/kg i.p., Day 25", "value": 22.5, "unit": "g"}, {"measurement": "Average weight (g) of mice", "setting": "Group 4, 160 mg/kg i.p., Day 28", "value": 22.6, "unit": "g"}, {"measurement": "Average weight (g) of mice", "setting": "Group 4, 160 mg/kg i.p., Day 32", "value": 23.3, "unit": "g"}, {"measurement": "Tumor volume (mm^3) (x ± S)", "setting": "Group 4, 160 mg/kg i.p., day 0", "value": 101.91, "unit": "mm^3"}, {"measurement": "Tumor volume (mm^3) (x ± S)", "setting": "Group 4, 160 mg/kg i.p., day 4", "value": 105.94, "unit": "mm^3"}, {"measurement": "Tumor volume (mm^3) (x ± S)", "setting": "Group 4, 160 mg/kg i.p., day 7", "value": 96.63, "unit": "mm^3"}, {"measurement": "Tumor volume (mm^3) (x ± S)", "setting": "Group 4, 160 mg/kg i.p., day 11", "value": 116.07, "unit": "mm^3"}, {"measurement": "Tumor volume (mm^3) (x ± S)", "setting": "Group 4, 160 mg/kg i.p., day 14", "value": 139.61, "unit": "mm^3"}, {"measurement": "Tumor volume (mm^3) (x ± S)", "setting": "Group 4, 160 mg/kg i.p., day 18", "value": 153.86, "unit": "mm^3"}, {"measurement": "Tumor volume (mm^3) (x ± S)", "setting": "Group 4, 160 mg/kg i.p., day 21", "value": 188.69, "unit": "mm^3"}, {"measurement": "Tumor volume (mm^3) (x ± S)", "setting": "Group 4, 160 mg/kg i.p., day 25", "value": 198.68, "unit": "mm^3"}, {"measurement": "Tumor volume (mm^3) (x ± S)", "setting": "Group 4, 160 mg/kg i.p., day 28", "value": 195.90, "unit": "mm^3"}, {"measurement": "Tumor volume (mm^3) (x ± S)", "setting": "Group 4, 160 mg/kg i.p., day 32", "value": 202.58, "unit": "mm^3"}, {"measurement": "weight loss and tolerability during treatment", "setting": "Group 5, 160 mg/kg i.v. Q2D×3 weeks", "value": "did not show any significant weight loss, and tolerated well"}, {"measurement": "Relative tumor volume (x ± S)", "setting": "[1]", "value": "0.00 ± 0.00"}, {"measurement": "T/C (%)", "setting": "[1]", "value": 0.00, "unit": "%"}, {"measurement": "TGI (%)", "setting": "[1]", "value": 100, "unit": "%"}, {"measurement": "complete tumor inhibition rate", "setting": "[1]", "value": 100, "unit": "%"}, {"measurement": "Tumor volume (x ± S)", "setting": "[1]", "value": "0.00 ± 0.00"}, {"measurement": "Average weight (g) of mice", "setting": "Group 5, 160 mg/kg i.v., Day 0", "value": 21.6, "unit": "g"}, {"measurement": "Average weight (g) of mice", "setting": "Group 5, 160 mg/kg i.v., Day 2", "value": 21.8, "unit": "g"}, {"measurement": "Average weight (g) of mice", "setting": "Group 5, 160 mg/kg i.v., Day 4", "value": 21.4, "unit": "g"}, {"measurement": "Average weight (g) of mice", "setting": "Group 5, 160 mg/kg i.v., Day 7", "value": 20.9, "unit": "g"}, {"measurement": "Average weight (g) of mice", "setting": "Group 5, 160 mg/kg i.v., Day 8", "value": 21.6, "unit": "g"}, {"measurement": "Average weight (g) of mice", "setting": "Group 5, 160 mg/kg i.v., Day 10", "value": 21.3, "unit": "g"}, {"measurement": "Average weight (g) of mice", "setting": "Group 5, 160 mg/kg i.v., Day 11", "value": 22.1, "unit": "g"}, {"measurement": "Average weight (g) of mice", "setting": "Group 5, 160 mg/kg i.v., Day 12", "value": 22.2, "unit": "g"}, {"measurement": "Average weight (g) of mice", "setting": "Group 5, 160 mg/kg i.v., Day 14", "value": 22.0, "unit": "g"}, {"measurement": "Average weight (g) of mice", "setting": "Group 5, 160 mg/kg i.v., Day 16", "value": 22.3, "unit": "g"}, {"measurement": "Average weight (g) of mice", "setting": "Group 5, 160 mg/kg i.v., Day 18", "value": 22.1, "unit": "g"}, {"measurement": "Average weight (g) of mice", "setting": "Group 5, 160 mg/kg i.v., Day 20", "value": 22.1, "unit": "g"}, {"measurement": "Average weight (g) of mice", "setting": "Group 5, 160 mg/kg i.v., Day 21", "value": 22.3, "unit": "g"}, {"measurement": "Average weight (g) of mice", "setting": "Group 5, 160 mg/kg i.v., Day 25", "value": 22.6, "unit": "g"}, {"measurement": "Average weight (g) of mice", "setting": "Group 5, 160 mg/kg i.v., Day 28", "value": 22.5, "unit": "g"}, {"measurement": "Average weight (g) of mice", "setting": "Group 5, 160 mg/kg i.v., Day 32", "value": 23.2, "unit": "g"}, {"measurement": "Tumor volume (mm^3) (x ± S)", "setting": "Group 5, 160 mg/kg i.v., day 0", "value": 102.11, "unit": "mm^3"}, {"measurement": "Tumor volume (mm^3) (x ± S)", "setting": "Group 5, 160 mg/kg i.v., day 4", "value": 98.46, "unit": "mm^3"}, {"measurement": "Tumor volume (mm^3) (x ± S)", "setting": "Group 5, 160 mg/kg i.v., day 7", "value": 79.97, "unit": "mm^3"}, {"measurement": "Tumor volume (mm^3) (x ± S)", "setting": "Group 5, 160 mg/kg i.v., day 11", "value": 40.67, "unit": "mm^3"}, {"measurement": "Tumor volume (mm^3) (x ± S)", "setting": "Group 5, 160 mg/kg i.v., day 14", "value": 22.37, "unit": "mm^3"}, {"measurement": "Tumor volume (mm^3) (x ± S)", "setting": "Group 5, 160 mg/kg i.v., day 18", "value": 11.52, "unit": "mm^3"}, {"measurement": "Tumor volume (mm^3) (x ± S)", "setting": "Group 5, 160 mg/kg i.v., day 21", "value": 11.56, "unit": "mm^3"}, {"measurement": "Tumor volume (mm^3) (x ± S)", "setting": "Group 5, 160 mg/kg i.v., day 25", "value": 6.73, "unit": "mm^3"}, {"measurement": "Tumor volume (mm^3) (x ± S)", "setting": "Group 5, 160 mg/kg i.v., day 28", "value": 0.00, "unit": "mm^3"}, {"measurement": "Tumor volume (mm^3) (x ± S)", "setting": "Group 5, 160 mg/kg i.v., day 32", "value": 0.00, "unit": "mm^3"}]}]}
